Measurements reported in patent publication US9303019B2, “Amino-pyrroline derivatives, and use thereof in the prevention and/or treatment of metabolic syndrome” (UNIVERSITE DE STRASBOURG, priority 2012, dated 2016).

Tested on: α2-adrenergic receptors
Assay: Binding assay of the α2-adrenergic receptors on CHO cell membranes with [3H]RX821002
Set-up: species or system human
Description: These membranes (30 μg proteins/ml for CHO-hα2A and CHO-hα2B, 100 μg protein/ml for CHO-hα2C) were incubated for 60 min at ambient temperature in binding buffer (33 mM Tris-HCl, 1 mM EDTA, pH 7.5) in a final volume of 500 μL containing 0.8 or 1 or 2 nM [^3H]RX821002 respectively for the adrenergic receptors hα2A, hα2B and hα2C.
Incubation was halted by rapid vacuum filtration through GF/C glass fibre filters followed by three successive washings in ice-cold binding buffer.
Non-specific binding was determined using 10 μM phentolamine.
The competitive assays were analyzed by non-linear regression using the GraphPad programme.
Ki values were determined using the method described by Cheng and Prussof (Cheng, Y. C.; Prusoff, W. H. Relationship between the Inhibition Constant (Ki) and the Concentration of Inhibitor which causes 50 percent Inhibition (I50) of an Enzymatic Reaction. Biochem. Pharmacol. 1973, 22, 3099-3108).

## Cc1c(Cl)cccc1NC1=NCC(C)C1.Cl (centres unmarked) [Compound 1, (3-Chloro-2-methyl-phenyl)-(4-methyl-4,5-dihydro-3H-pyrrol-2-yl)-amine hydrochloride]
CHO cells
  Ki: > 10 µM
Concentration of 10^−5 M
  displacement at the α2-adrenergic receptor: No significant displacement
